Data from patent US20070043049A1, “Substituted heterocyclic diarylamine analogues” (Neurogen Corporation, priority 2003, published 2007).

The compounds below were run against T1, human capsaicin receptor (Homo sapiens, UniProt Q8NER1) (assay: Calcium mobilization assay, determination of antagonist activity (Example 6)). Settings: 50% decrease in fluorescence response of cells expressing human capsaicin receptor exposed to capsaicin.
T1 construct: pBK-CMV expression construct encoding the full length human capsaicin receptor; expressed in transfected cells
Format: cell-based
How it was run: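 HEK293 cells stably expressing full-length human capsaicin receptor, Fluo-3 AM loaded, preincubated with compound 0.5–6 h at room temperature in KRH buffer pH 7.4. Challenged with capsaicin at its EC50; FLIPR fluorescence read. IC50 is concentration halving the capsaicin-induced calcium response.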

T1 sequence (Q8NER1 whole entry): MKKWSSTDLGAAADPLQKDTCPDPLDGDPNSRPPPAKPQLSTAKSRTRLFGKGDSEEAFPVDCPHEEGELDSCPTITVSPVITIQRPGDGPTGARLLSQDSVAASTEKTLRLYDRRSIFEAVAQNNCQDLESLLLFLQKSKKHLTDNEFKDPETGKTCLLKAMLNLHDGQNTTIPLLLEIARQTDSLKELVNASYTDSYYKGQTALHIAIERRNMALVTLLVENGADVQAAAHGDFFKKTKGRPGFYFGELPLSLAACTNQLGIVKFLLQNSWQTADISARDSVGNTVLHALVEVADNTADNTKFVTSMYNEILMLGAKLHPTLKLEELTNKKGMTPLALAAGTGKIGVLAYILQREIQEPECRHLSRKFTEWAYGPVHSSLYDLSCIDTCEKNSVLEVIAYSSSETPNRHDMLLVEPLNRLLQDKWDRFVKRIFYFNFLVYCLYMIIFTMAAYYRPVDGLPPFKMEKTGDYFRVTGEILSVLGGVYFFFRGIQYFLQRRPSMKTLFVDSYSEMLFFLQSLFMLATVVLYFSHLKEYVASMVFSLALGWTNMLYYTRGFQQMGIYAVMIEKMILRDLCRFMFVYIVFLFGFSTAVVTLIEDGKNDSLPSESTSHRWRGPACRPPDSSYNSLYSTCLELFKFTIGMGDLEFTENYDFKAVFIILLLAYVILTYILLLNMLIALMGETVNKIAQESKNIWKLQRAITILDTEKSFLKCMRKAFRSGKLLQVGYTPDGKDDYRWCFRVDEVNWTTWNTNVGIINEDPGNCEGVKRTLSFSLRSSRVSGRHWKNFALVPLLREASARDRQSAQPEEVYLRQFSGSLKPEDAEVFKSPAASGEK

IC50, ≤ 1000 nM:
CCN(CC)c1nc(Nc2ccc(F)c(F)c2)nc(N2CCN(c3ncccc3Cl)C[C@H]2C)n1 [Compound 100, 6-[4-(3-Chloro-pyridin-2-yl)-2-methyl-piperazin-1-yl]-N-(3,4-difluoro-phenyl)-N′,N′-diethyl-[1,3,5]triazine-2,4-diamine (R)]
C[C@@H]1CN(c2ncccc2Cl)CCN1c1nc(Nc2ccc(F)c(F)c2)nc(N2CCOCC2)n1 [Compound 101, {4-[4-(3-Chloro-pyridin-2-yl)-2-methyl-piperazin-1-yl]-6-morpholin-4-yl-[1,3,5]triazin-2-yl}-(3,4-difluoro-phenyl)-amine (R)]
CCN(CC)c1nc(Nc2ccc(F)c(F)c2)nc(N2CCN(c3ncccc3S(C)(=O)=O)C[C@H]2C)n1 [Compound 102, N-(3,4-Difluoro-phenyl)-N′,N′-diethyl-6-[4-(3-methanesulfonyl-pyridin-2-yl)-2-methyl-piperazin-1-yl]-[1,3,5]triazine-2,4-diamine (R)]
C[C@@H]1CN(c2ncccc2S(C)(=O)=O)CCN1c1nc(Nc2ccc(F)c(F)c2)nc(N2CCOCC2)n1 [Compound 103, (3,4-Difluoro-phenyl)-{4-[4-(3-methanesulfonyl-pyridin-2-yl)-2-methyl-piperazin-1-yl]-6-morpholin-4-yl-[1,3,5]triazin-2-yl}-amine (R)]
Fc1ccc(Nc2cc(N3CCOCC3)nc(N3CCN(c4ncccc4C(F)(F)F)CC3)n2)cc1 [Compound 105, (4-Fluoro-phenyl)-{6-morpholin-4-yl-2-[4-(3-trifluoromethyl-pyridin-2-yl)-piperazin-1-yl]-pyrimidin-4-yl}-amine]
Cc1ccc(Nc2cc(N3CCOCC3)nc(N3CCN(c4ncccc4C(F)(F)F)CC3)n2)cc1 [Compound 106, {6-Morpholin-4-yl-2-[4-(3-trifluoromethyl-pyridin-2-yl)-piperazin-1-yl]-pyrimidin-4-yl}-p-tolyl-amine]
CCN(CC)c1nc(Nc2ccc(C#N)cc2)nc(N2CCN(c3ncccc3Cl)CC2)n1 [Compound 107, 4-{4-[4-(3-Chloro-pyridin-2-yl)-piperazin-1-yl]-6-diethylamino-[1,3,5]triazin-2-ylamino}-benzonitrile]
CCN(CC)c1nc(Nc2cc(OC)ccc2OC)nc(N2CCN(c3ccccn3)CC2)n1 [Compound 108, N-(2,5-Dimethoxy-phenyl)-N′,N′-diethyl-6-(4-pyridin-2-yl-piperazin-1-yl)-[1,3,5]triazine-2,4-diamine]
COCc1nc(Nc2ccc(F)c(F)c2)cc(N2CCN(c3ncccc3C(F)(F)F)CC2)n1 [Compound 109, (3,4-Difluoro-phenyl)-{2-methoxymethyl-6-[4-(3-trifluoromethyl-pyridin-2-yl)-piperazin-1-yl]-pyrimidin-4-yl}-amine]
OCc1nc(Nc2ccc(F)c(F)c2)cc(N2CCN(c3ncccc3C(F)(F)F)CC2)n1 [Compound 110, {4-(3,4-Difluoro-phenylamino)-6-[4-(3-trifluoromethyl-pyridin-2-yl)-piperazin-1-yl]-pyrimidin-2-yl}-methanol]
CCN(CC)Cc1nc(Nc2ccc(F)c(F)c2)cc(N2CCN(c3ncccc3C(F)(F)F)CC2)n1 [Compound 111, {2-Diethylaminomethyl-6-[4-(3-trifluoromethyl-pyridin-2-yl)-piperazin-1-yl]-pyrimidin-4-yl}-(3,4-difluoro-phenyl)-amine]
Fc1ccc(Nc2cc(N3CCN(c4ncccc4C(F)(F)F)CC3)nc(CN3CCOCC3)n2)cc1F [Compound 112, (3,4-Difluoro-phenyl)-{2-morpholin-4-ylmethyl-6-[4-(3-trifluoromethyl-pyridin-2-yl)-piperazin-1-yl]-pyrimidin-4-yl}-amine]
C[C@@H]1CN(Cc2nc(Nc3ccc(F)c(F)c3)cc(N3CCN(c4ncccc4C(F)(F)F)CC3)n2)C[C@H](C)O1 [Compound 113, (3,4-Difluoro-phenyl)-{2-(2,6-dimethyl-morpholin-4-ylmethyl)-6-[4-(3-trifluoromethyl-pyridin-2-yl)-piperazin-1-yl]-pyrimidin-4-yl}-amine]
CCCCc1ccc(-c2nc(Nc3ccc(C(F)(F)F)cc3)nc(N3CCN(c4ncccc4Cl)C[C@H]3C)n2)cc1 [Compound 115, {4-(4-Butyl-phenyl)-6-[4-(3-chloro-pyridin-2-yl)-2-methyl-piperazin-1-yl]-[1,3,5]triazin-2-yl}-(4-trifluoromethyl-phenyl)-amine]
COc1ccc(-c2nc(Nc3ccc(C(F)(F)F)cc3)nc(N3CCN(c4ncccc4Cl)C[C@H]3C)n2)c(OC)c1 [Compound 116, [4-[4-(3-Chloro-pyridin-2-yl)-2-methyl-piperazin-1-yl]-6-(2,4-dimethoxy-phenyl)-[1,3,5]triazin-2-yl]-(4-trifluoromethyl-phenyl)-amine]
